Patent publication US5470862A, “Substituted pyrazolyl compounds and methods employing such compounds” (Ohmeda Pharmaceutical Products Division Inc., priority 1995, dated 1995)

The molecules below were run on rats (assay: Loss of righting after intravenous administration (rat)). Settings: 20 min; rat (asterisk), intravenous (lateral tail vein), 20 minute observation; acid addition salts, values corrected for the salts.
Type: in vivo
Procedure: (§1) The acid addition salts of the compounds were dissolved in sterile water for injection, U.S.P, to form a solution, the concentration of which varied from 0.001 mg/ml to 5 mg/ml. Mice or rats were used for the tests. The test solution was administered to the test animal intravenously through the lateral tail vein. The animals were observed over a 20 minute period for loss of righting which is defined as the animal remaining in a supine position for 30 seconds. Five to ten mice and three to six rats were utilized for each dosage. The ED50 was calculated for each test compound either by linear regression or by a standard computer program utilizing the method of Litchfield and Wilcoxon, J. Pharmacol. Exp. Ther., vol. 96, p. 99 (1949). Since different animals were used, the ED50 values in Table 1 are those determined in the mouse except those values marked with an asterisk which were determined in the rat.

First: CCOC(=O)c1cc(-c2nnco2)n(C(C)c2ccccn2)n1 (stereo not drawn)
Second: CCOC(=O)c1cc(-c2ncco2)n(C(C)c2ccccn2)n1 (stereo not drawn)
The ED50 of the first is 8.5-fold higher: 7.2 mg/kg for the first, 0.85 mg/kg for the second.

`CCOC(=O)c1cc(-c2csc(-c3cccnc3)n2)nn1C(C)c1ccccn1` (stereo not drawn) and `CCOC(=O)c1cc(-c2cnccn2)nn1C(C)c1ccccn1` (stereo not drawn) are within 1.5-fold of each other in ED50: 1.1 mg/kg for the first, 1.5 mg/kg for the second.

Going from `CCOC(=O)c1cc(-c2coc(C)n2)nn1C(C)c1ccccn1` (stereo not drawn) to `CCOC(=O)c1cc(-c2coc(C)n2)n(C(C)c2ccccn2)n1` (stereo not drawn), the ED50 rises from 1.2 mg/kg to 8.8 mg/kg (7.3-fold).

Going from `CCOC(=O)c1cc(-c2ocnc2C)n(C(C)c2ccccn2)n1` (stereo not drawn) to `CCOC(=O)c1cc(-c2ncc(C)o2)n(C(C)c2ccccn2)n1` (stereo not drawn), the ED50 falls from 23.2 mg/kg to 0.85 mg/kg (27-fold).

First: CCOC(=O)c1cc(-c2cc(C)no2)nn1C(C)c1ccccn1 (stereo not drawn)
Second: CCOC(=O)c1cc(-c2cc(C)no2)n(C(C)c2ccccn2)n1 (stereo not drawn)
The ED50 of the first is 1.9-fold lower: 3.8 mg/kg for the first, 7.2 mg/kg for the second.

`CCOC(=O)c1cc(-c2ncc(C)o2)nn1C(C)c1ccccn1` (stereo not drawn) and `CCOC(=O)c1cc(-c2nc(C)no2)nn1C(C)c1ccccn1` (stereo not drawn) are within 1.5-fold of each other in ED50: 1.1 mg/kg for the first, 0.79 mg/kg for the second.

Compared with `CCOC(=O)c1cc(-c2ccn(C)c2)n(C(C)c2ccccn2)n1` (stereo not drawn), `CCOC(=O)c1cc(-c2cccc(N)c2)nn1C(C)c1ccccn1` (stereo not drawn) is 7.9-fold lower in ED50: 4.2 mg/kg for the first, 0.53 mg/kg for the second.

Compared with `CCOC(=O)c1cc(-c2cccnc2)nn1Cc1ccccn1`, `CCOC(=O)c1cc(-c2cccnc2)n(Cc2ccccn2)n1` is 2.5-fold higher in ED50: 7 mg/kg for the first, 17.7 mg/kg for the second.

Compared with `CCOC(=O)c1cc(-c2cccc(C)n2)nn1C(C)c1ccccn1` (stereo not drawn), `CCOC(=O)c1cc(-c2ccccc2N)nn1C(C)c1ccccn1` (stereo not drawn) is 2-fold lower in ED50: 1.6 mg/kg for the first, 0.81 mg/kg for the second.

Going from `CCOC(=O)c1cc(-c2ccccn2)nn1Cc1ccccn1` to `CCOC(=O)c1cc(-c2ccccn2)nn1Cc1cccnc1`, the ED50 rises from 5.1 mg/kg to 30.5 mg/kg (6-fold).

`CCOC(=O)c1cc(-c2ccc(N)cc2)nn1C(C)c1ccccn1` (stereo not drawn) and `CCOC(=O)c1cc(-c2ccccc2)nn1C(C)c1ccccn1` (stereo not drawn) are within 1.5-fold of each other in ED50: 2.7 mg/kg for the first, 2.8 mg/kg for the second.

`CCOC(=O)c1cc(-c2cccc(N(C)C)c2)nn1C(C)c1ccccn1` (stereo not drawn) and `CCCNC(=O)c1cc(C(=O)OCC)n(C(C)c2ccccn2)n1` (stereo not drawn) [CH3 / CONHC3 H7 / CO2 Et / N / CH] are within 1.5-fold of each other in ED50: 1.5 mg/kg for the first, 1.8 mg/kg for the second.

`CCOC(=O)C(=O)c1cc(C(=O)OCC)n(C(C)c2ccccn2)n1` (stereo not drawn) [CH3 / COCO2 Et / CO2 Et / N / CH] showed an ED50 of 2.86 mg/kg.

Each molecule was assayed on mice (assay: Loss of righting after intravenous administration (mouse)). Settings: 20 min, intravenous (lateral tail vein), 20 minute observation, acid addition salts, values corrected for the salts.
Type: in vivo
Procedure: as §1

Compared with `C=C(C)c1cc(C(=O)OCC)nn1C(C)c1ccccn1` (stereo not drawn), `CCOC(=O)c1cc(C(C)=O)n(C(C)c2ccccn2)n1` (stereo not drawn) [CH3 / CO2 Et / CH3 CO / N / CH] is 2.2-fold higher in ED50: 8.9 mg/kg for the first, 19.7 mg/kg for the second.

First: CCOC(=O)c1cc(-c2nccs2)nn1C(C)c1ccccn1 (stereo not drawn)
Second: CCOC(=O)c1cc(-c2cocn2)nn1C(C)c1ccccn1 (stereo not drawn)
The ED50 of the first is 2.4-fold lower: 3.2 mg/kg for the first, 7.7 mg/kg for the second.

`CCOC(=O)c1cc(-c2cccs2)n(C(C)c2ccccn2)n1` (stereo not drawn) and `CCOC(=O)c1cc(-c2ccsc2)n(C(C)c2ccccn2)n1` (stereo not drawn) are the same in ED50: 17.6 mg/kg for the first, 17.6 mg/kg for the second.

Going from `CCOC(=O)c1cc(-c2ccco2)nn1C(C)c1ccccn1` (stereo not drawn) to `CCOC(=O)c1cc(-c2cnco2)nn1C(C)c1ccccn1` (stereo not drawn), the ED50 rises from 1.3 mg/kg to 2.8 mg/kg (2.2-fold).

Compared with `CCOC(=O)c1cc(-c2ccco2)nn1Cc1ccccn1`, `CCOC(=O)c1cc(-c2ccco2)n(Cc2ccccn2)n1` is 2-fold higher in ED50: 8.9 mg/kg for the first, 17.6 mg/kg for the second.

Compared with `CCOC(=O)c1cc(-c2cccs2)n(Cc2ccccn2)n1`, `CCOC(=O)c1cc(-c2cccs2)nn1Cc1ccccn1` is 2-fold higher in ED50: 14.3 mg/kg for the first, 28.3 mg/kg for the second.

Compared with `CCOC(=O)c1cc(-c2nnco2)nn1C(C)c1ccccn1` (stereo not drawn), `CCOC(=O)c1cc(-c2ocnc2C)nn1C(C)c1ccccn1` (stereo not drawn) is 1.9-fold lower in ED50: 9 mg/kg for the first, 4.7 mg/kg for the second.

First: CCOC(=O)c1cc(-c2ccccn2)nn1C(C)c1ccccn1 (stereo not drawn)
Second: CCOC(=O)c1cc(-c2ccccn2)n(C(C)c2ccccn2)n1 (stereo not drawn)
The ED50 of the first is 5-fold lower: 3.5 mg/kg for the first, 17.5 mg/kg for the second.

First: CCOC(=O)c1cc(-c2ccncc2)nn1C(C)c1ccccn1 (stereo not drawn)
Second: CCOC(=O)c1cc(-c2cccnc2)nn1C(C)c1ccccn1 (stereo not drawn)
The ED50 of the first is 5.2-fold higher: 12 mg/kg for the first, 2.3 mg/kg for the second.

Going from `CCOC(=O)c1nc(-c2cc(C(=O)OCC)n(C(C)c3ccccn3)n2)cs1` (stereo not drawn) to `CCOC(=O)c1cc(-c2csc(C(=O)OCC)n2)n(C(C)c2ccccn2)n1` (stereo not drawn), the ED50 rises from 13.6 mg/kg to 31.6 mg/kg (2.3-fold).

Going from `CCOC(=O)c1cc(-c2csc(-c3ccncc3)n2)nn1C(C)c1ccccn1` (stereo not drawn) to `CCOC(=O)c1cc(-c2csc(-c3ccncc3)n2)n(C(C)c2ccccn2)n1` (stereo not drawn), the ED50 rises from 5.7 mg/kg to 51.4 mg/kg (9-fold).

Going from `CCOC(=O)c1cc(-c2cn3ccccc3n2)nn1C(C)c1ccccn1` (stereo not drawn) to `CCOC(=O)c1cc(-c2cccn2C)nn1C(C)c1ccccn1` (stereo not drawn), the ED50 falls from 14.3 mg/kg to 0.95 mg/kg (15-fold).

Going from `CCOC(=O)c1cc(-c2cocn2)n(C(C)c2ccccn2)n1` (stereo not drawn) to `CCOC(=O)c1cc(-c2cc(C)on2)n(C(C)c2ccccn2)n1` (stereo not drawn), the ED50 rises from 13.4 mg/kg to 23.7 mg/kg (1.8-fold).

`CCOC(=O)c1cc(-c2cc(C)on2)nn1C(C)c1ccccn1` (stereo not drawn) and `CCOC(=O)c1cc(C)nn1C(C)c1ccccn1` (stereo not drawn) [CH3 / CH3 / CO2 Et / N / CH] are within 1.5-fold of each other in ED50: 9.9 mg/kg for the first, 9 mg/kg for the second.

`CCOC(=O)c1cc(-c2cccn2C)n(C(C)c2ccccn2)n1` (stereo not drawn) and `CCOC(=O)c1cc(C)n(C(C)c2ccccn2)n1` (stereo not drawn) [CH3 / CO2 Et / CH3 / N / CH] are within 1.5-fold of each other in ED50: 6.2 mg/kg for the first, 6.9 mg/kg for the second.

Going from `CCOC(=O)c1cc(CC)nn1C(C)c1ccccn1` (stereo not drawn) [CH3 / CH2 CH3 / CO2 Et / N / CH] to `CCOC(=O)c1cc(C(C)=O)nn1C(C)c1ccccn1` (stereo not drawn) [CH3 / CH3 CO / CO2 Et / N / CH], the ED50 falls from 9.4 mg/kg to 4 mg/kg (2.4-fold).

Compared with `CC(=O)OCc1cc(C)n(C(C)c2ccccn2)n1` (stereo not drawn) [CH3 / CH2 OCOCH3 / CH3 / N / CH], `CCOC(=O)c1cc(COC(C)=O)n(C(C)c2ccccn2)n1` (stereo not drawn) [CH3 / CO2 Et / CH2 OCOCH3 / N / CH] is 2.2-fold lower in ED50: 61.1 mg/kg for the first, 28.3 mg/kg for the second.

`CCOC(=O)c1cc(C)nn1C(C)c1cccnc1` (stereo not drawn) [CH3 / CH3 / CO2 Et / CH / N] and `CCOC(=O)c1cc(C)n(C(C)c2cccnc2)n1` (stereo not drawn) [CH3 / CO2 Et / CH3 / CH / N] are within 1.5-fold of each other in ED50: 21.5 mg/kg for the first, 26.3 mg/kg for the second.

Going from `CCOC(=O)c1cc(C=O)nn1C(C)c1ccccn1` (stereo not drawn) [CH3 / CHO / CO2 Et / N / CH, 3-formyl-1-(1-(2-pyridinyl)ethyl)pyrazole-5-carboxylic acid ethyl ester] to `CCOC(=O)c1cc(C(=O)OCC)n(C(C)c2ccccn2)n1` (stereo not drawn) [CH3 / CO2 Et / CO2 Et / N / CH, 1-[1-(2-pyridyl)ethyl]pyrazole-3,5-dicarboxylic acid diethyl ester], the ED50 falls from 9.9 mg/kg to 1.4 mg/kg (7.1-fold).

Going from `CCOC(=O)c1cc(CC)n(C(C)c2ccccn2)n1` (stereo not drawn) [CH3 / CO2 Et / CH2 CH3 / N / CH] to `CCOC(=O)c1cc(COC)n(C(C)c2ccccn2)n1` (stereo not drawn) [CH3 / CO2 Et / CH2 OCH3 / N / CH], the ED50 rises from 9.4 mg/kg to 19.1 mg/kg (2-fold).

`CCOC(=O)c1cc(C(=O)OCC)n(C(C)c2cccnc2)n1` (stereo not drawn) [CH3 / CO2 Et / CO2 Et / CH / N] and `CCOC(=O)c1cc(C(=O)OCC)n(Cc2cccnc2)n1` [H / CO2 Et / CO2 Et / CH / N] are within 1.5-fold of each other in ED50: 8.6 mg/kg for the first, 10.4 mg/kg for the second.

`CCOC(=O)c1ccn(C(C)c2ccccn2)n1` (stereo not drawn) [CH3 / CO2 Et / H / N / CH] and `CCOC(=O)c1cc(O)n(C(C)c2ccccn2)n1` (stereo not drawn) [CH3 / CO2 Et / OH / N / CH] are within 1.5-fold of each other in ED50: 34.2 mg/kg for the first, 31 mg/kg for the second.

First: CCOC(=O)c1ccnn1C(C)c1ccccn1 (stereo not drawn) [CH3 / H / CO2 Et / N / CH]
Second: CCOC(=O)c1cc(C)nn1Cc1ccccn1 [H / CH3 / CO2 Et / N / CH]
The ED50 of the first is 1.8-fold higher: 31 mg/kg for the first, 17.4 mg/kg for the second.

Compared with `CCOC(=O)c1cc(C)nn1Cc1cccnc1` [H / CH3 / CO2 Et / CH / N], `CCOC(=O)c1cc(C(=O)OCC)n(Cc2ccccn2)n1` [H / CO2 Et / CO2 Et / N / CH] is 3.6-fold lower in ED50: 25.1 mg/kg for the first, 6.9 mg/kg for the second.

`CCOC(=O)c1cc(C)n(Cc2ccccn2)n1` [H / CO2 Et / CH3 / N / CH] and `CCOC(=O)c1ccn(Cc2ccccn2)n1` [H / CO2 Et / H / N / CH] are within 1.5-fold of each other in ED50: 37.7 mg/kg for the first, 43.9 mg/kg for the second.
